According to patent publication US20250074891A1 (Anaxis Pharma Pty Ltd., priority 2021, published 2025):

Columns and labels:
Details in all cases: Table 35
[1] = molecular target: RIP1 (Homo sapiens (Human), UniProt Q13546); experiment: KINOMEscan binding assay, RIP1
[2] = molecular target: RIP3 (Homo sapiens (Human), UniProt Q9Y572); experiment: KINOMEscan binding assay, RIP3
Experimental: (§1) Kinase assays. For most assays, kinase-tagged T7 phage strains were grown in parallel in 24-well blocks in an E. coli host derived from the BL21 strain. E. coli were grown to log-phase and infected with T7 phage from a frozen stock (multiplicity of infection=0.4) and incubated with shaking at 32° C. until lysis (90-150 minutes).
(§2) The Hill Slope was set to −1.

[3] = molecular target: MLKL (full length) (Homo sapiens (Human), UniProt Q8NB16); experiment: KINOMEscan binding assay, MLKL (full length)
Experimental: as §1, §2

Sequence of RIP3 (Q9Y572 whole entry): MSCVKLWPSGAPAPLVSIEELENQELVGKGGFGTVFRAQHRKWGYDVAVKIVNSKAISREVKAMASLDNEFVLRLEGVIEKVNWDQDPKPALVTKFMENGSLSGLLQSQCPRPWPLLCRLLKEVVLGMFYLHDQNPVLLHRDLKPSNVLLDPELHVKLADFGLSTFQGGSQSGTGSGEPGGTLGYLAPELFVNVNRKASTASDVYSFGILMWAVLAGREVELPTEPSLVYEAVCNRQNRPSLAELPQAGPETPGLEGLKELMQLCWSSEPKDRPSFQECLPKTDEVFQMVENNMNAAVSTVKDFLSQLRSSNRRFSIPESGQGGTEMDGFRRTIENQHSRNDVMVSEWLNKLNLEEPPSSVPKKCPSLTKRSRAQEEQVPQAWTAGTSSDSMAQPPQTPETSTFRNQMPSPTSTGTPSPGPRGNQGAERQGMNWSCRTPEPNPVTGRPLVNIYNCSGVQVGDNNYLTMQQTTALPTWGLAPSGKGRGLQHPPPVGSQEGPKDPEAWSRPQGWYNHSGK
Sequence of MLKL (full length) (Q8NB16 whole entry): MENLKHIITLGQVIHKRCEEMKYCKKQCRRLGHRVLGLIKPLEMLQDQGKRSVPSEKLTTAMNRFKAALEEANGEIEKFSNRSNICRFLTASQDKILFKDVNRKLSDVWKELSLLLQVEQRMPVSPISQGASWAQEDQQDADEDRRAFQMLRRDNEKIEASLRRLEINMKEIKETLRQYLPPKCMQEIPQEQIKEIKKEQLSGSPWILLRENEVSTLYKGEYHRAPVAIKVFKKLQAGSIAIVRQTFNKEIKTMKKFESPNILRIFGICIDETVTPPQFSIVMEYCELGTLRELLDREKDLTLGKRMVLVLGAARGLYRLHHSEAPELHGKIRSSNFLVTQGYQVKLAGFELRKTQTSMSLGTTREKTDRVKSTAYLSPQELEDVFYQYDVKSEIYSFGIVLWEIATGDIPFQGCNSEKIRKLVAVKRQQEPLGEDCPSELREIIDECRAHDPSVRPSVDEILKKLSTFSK
Sequence of RIP1 (Q13546 whole entry): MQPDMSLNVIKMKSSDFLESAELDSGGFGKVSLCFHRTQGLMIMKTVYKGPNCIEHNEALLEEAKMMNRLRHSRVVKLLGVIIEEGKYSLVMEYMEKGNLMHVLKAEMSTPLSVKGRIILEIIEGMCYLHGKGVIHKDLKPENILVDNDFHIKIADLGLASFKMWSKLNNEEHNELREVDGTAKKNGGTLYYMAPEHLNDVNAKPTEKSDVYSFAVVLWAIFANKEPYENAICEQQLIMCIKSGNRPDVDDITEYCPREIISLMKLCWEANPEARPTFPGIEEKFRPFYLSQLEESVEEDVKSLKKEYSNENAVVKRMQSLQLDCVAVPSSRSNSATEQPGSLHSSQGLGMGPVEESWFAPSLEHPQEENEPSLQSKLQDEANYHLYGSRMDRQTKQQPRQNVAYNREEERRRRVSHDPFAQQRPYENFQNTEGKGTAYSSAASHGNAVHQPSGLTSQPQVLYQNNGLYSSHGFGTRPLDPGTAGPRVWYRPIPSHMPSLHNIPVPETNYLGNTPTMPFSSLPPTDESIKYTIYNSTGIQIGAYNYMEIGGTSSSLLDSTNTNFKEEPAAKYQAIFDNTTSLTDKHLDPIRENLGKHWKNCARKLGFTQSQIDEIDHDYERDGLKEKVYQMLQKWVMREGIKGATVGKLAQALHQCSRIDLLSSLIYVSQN

| SMILES | Kd [1] | Kd [2] | Kd [3] |
| --- | --- | --- | --- |
| CCS(=O)(=O)Nc1ccc(-c2n[nH]c(Nc3ccc4ccc(Cl)cc4n3)c2C(N)=O)cc1OCc1ccc(F)cc1 [Compound 138, 5-((7-chloroquinolin-2-yl)amino)-3-(4-(ethylsulfonamido)-3-((4-fluorobenzyl)oxy)phenyl)-1H-pyrazole-4-carboxamide] | > 30 µM | > 30 µM | – |
| CCS(=O)(=O)Nc1ccc(-c2n[nH]c(Nc3cnccn3)c2C(N)=O)cc1OCc1cccc(OC(F)(F)F)c1 [Compound 214, 3-(4-(ethylsulfonamido)-3-((3-(trifluoromethoxy)benzyl)oxy)phenyl)-5-(pyrazin-2-ylamino)-1H-pyrazole-4-carboxamide] | > 30 µM | > 30 µM | – |
| CCS(=O)(=O)Nc1ccc(-c2n[nH]c(Nc3cncc(C(F)(F)F)n3)c2C(N)=O)cc1 [Compound 44, 3-(4-(ethylsulfonamido)phenyl)-5-((6-(trifluoromethyl)pyrazin-2-yl)amino)-1H-pyrazole-4-carboxamide] | > 30 µM | > 30 µM | – |
| CCS(=O)(=O)Nc1ccc(-c2n[nH]c(Nc3cnccn3)c2C(N)=O)cc1OCc1ccc(C(F)(F)F)cc1 [Compound 216, 3-(4-(ethylsulfonamido)-3-((4-(trifluoromethyl)benzyl)oxy)phenyl)-5-(pyrazin-2-ylamino)-1H-pyrazole-4-carboxamide] | > 30 µM | > 30 µM | – |
| CCS(=O)(=O)Nc1ccc(-c2n[nH]c(Nc3cccc(C(F)(F)F)n3)c2C(N)=O)cc1OCc1ccc(F)cc1 [Compound 8, 3-(4-(ethylsulfon-amido)-3-((4-fluoro-benzyl)oxy)phenyl)-5-((6-(trifluoro-methyl)pyridin-2-yl)amino)-1H-pyrazole-4-carboxamide] | > 30 µM | > 30 µM | – |
| CCS(=O)(=O)Nc1ccc(-c2n[nH]c(Nc3cnccn3)c2C(N)=O)cc1OCc1c(C)cc(F)cc1C [Compound 142, 3-(4-(ethylsulfonamido)-3-((4-fluoro-2,6-dimethylbenzyl)oxy)phenyl)-5-(pyrazin-2-ylamino)-1H-pyrazole-4-carboxamide] | – | > 30 µM | – |
| C[C@H](Oc1cc(-c2n[nH]c(Nc3cc(C45CC6CC(CC(C6)C4)C5)on3)c2C(N)=O)ccc1NS(=O)(=O)C(F)F)c1ccc(F)cc1 [Compound 304] | > 30 µM | > 30 µM | – |
| CCS(=O)(=O)Nc1ccc(-c2n[nH]c(Nc3cc(C)ncc3F)c2C(N)=O)cc1 [Compound 111, 3-(4-(ethylsulfonamido)phenyl)-5-((5-fluoro-2-methylpyridin-4-yl)amino)-1H-pyrazole-4-carboxamide] | > 30 µM | > 30 µM | – |
| CCS(=O)(=O)Nc1ccc(-c2n[nH]c(Nc3cnccn3)c2C(N)=O)cc1OCc1cccc(C(F)(F)F)c1 [Compound 218, 3-(4-(ethylsulfonamido)-3-((3-(trifluoromethyl)benzyl)oxy)phenyl)-5-(pyrazin-2-ylamino)-1H-pyrazole-4-carboxamide] | > 30 µM | > 30 µM | – |
| CCS(=O)(=O)Nc1ccc(-c2n[nH]c(Nc3cnccn3)c2C(N)=O)cc1OCc1ccc(OC(F)(F)F)cc1 [Compound 215, 3-(4-(ethylsulfonamido)-3-((4-(trifluoromethoxy)benzyl)oxy)phenyl)-5-(pyrazin-2-ylamino)-1H-pyrazole-4-carboxamide] | > 30 µM | > 30 µM | – |
| CCS(=O)(=O)Nc1ccc(-c2n[nH]c(Nc3cccnc3C(F)(F)F)c2C(N)=O)cc1OCc1ccc(F)cc1 [Compound 192, 3-(4-(ethylsulfonamido)-3-((4-fluorobenzyl)oxy)phenyl)-5-((2-(trifluoromethyl)pyridine-3-yl)amino)-1H-pyrazole-4-carboxamide] | > 30 µM | > 30 µM | – |
| C[C@H](Oc1cc(NS(=O)(=O)CC(F)(F)F)ccc1-c1n[nH]c(Nc2cnccn2)c1C(N)=O)c1ccc(F)cc1 [Compound 244, 3-{2-[(1S)-1-(4-fluorophenyl)ethoxy]-4-(2,2,2-trifluoroethanesulfonamido)phenyl}-5-[(pyrazin-2-yl)amino]-1H-pyrazole-4-carboxamide] | > 30 µM | > 30 µM | – |
| CCS(=O)(=O)Nc1ccc(-c2n[nH]c(Nc3cccc(C(F)(F)F)n3)c2C(N)=O)cc1OCC(C)C [Compound 12, 3-(4-(ethylsulfonamido)-3-isobutoxyphenyl)-5-((6-(trifluoromethyl)pyridin-2-yl)amino)-1H-pyrazole-4-carboxamide] | > 30 µM | > 30 µM | – |
| CCS(=O)(=O)Nc1ccc(-c2n[nH]c(Nc3ccc4cc(Cl)ccc4n3)c2C(N)=O)cc1OCc1ccc(F)cc1 [Compound 220, 5-((6-chloroquinolin-2-yl)amino)-3-(4-(ethylsulfonamido)-3-((4-fluorobenzyl)oxy)phenyl)-1H-pyrazole-4-carboxamide] | > 30 µM | > 30 µM | – |
| CCS(=O)(=O)Nc1ccc(-c2n[nH]c(Nc3cnccn3)c2C(N)=O)cc1OCC(C)C [Compound 45, 3-(4-(ethylsulfonamido)-3-isobutoxyphenyl)-5-(pyrazin-2-ylamino)-1H-pyrazole-4-carboxamide] | – | > 30 µM | – |
| CCS(=O)(=O)Nc1ccc(-c2n[nH]c(Nc3cccc(C(F)(F)F)n3)c2C(N)=O)cc1OCC1CCCC1 [Compound 10, 3-(3-(cyclopentyl-methoxy)-4-(ethylsulfon-amido)phenyl)-5-((6-(trifluoro-methyl)pyridin-2-yl)amino)-1H-pyrazole-4-carboxamide] | > 30 µM | > 30 µM | – |
| CCS(=O)(=O)Nc1ccc(-c2n[nH]c(Nc3cnccn3)c2C(N)=O)cc1OCC1CCCN(C)C1 (stereo not shown) [Compound 187, 3-(4-(ethylsulfonamido)-3-((1-methylpiperidin-3-yl)methoxy)phenyl)-5-(pyrazin-2-ylamino)-1H-pyrazole-4-carboxamide] | > 30 µM | > 30 µM | – |
| CCS(=O)(=O)Nc1ccc(-c2n[nH]c(Nc3cnc(C)cn3)c2C(N)=O)cc1OCc1ccc(F)c(Cl)c1 [Compound 150, 3-(3-((3-chloro-4-fluorobenzyl)oxy)-4-(ethylsulfonamido)phenyl)-5-((5-methylpyrazin-2-yl)amino)-1H-pyrazole-4-carboxamide] | > 30 µM | – | < 10 nM |
| COCCOc1cc(Nc2[nH]nc(-c3ccc(NS(=O)(=O)C(F)(F)F)cc3)c2C(N)=O)ccn1 [Compound 114, 5-((2-(2-methoxyethoxy)pyridin-4-yl)amino)-3-(4-((trifluoromethyl)sulfonamido)phenyl)-1H-pyrazole-4-carboxamide] | > 30 µM | – | < 10 nM |
| CCS(=O)(=O)Nc1ccc(-c2n[nH]c(Nc3ccccn3)c2C(N)=O)cc1OCC1CCCC1 [Compound 36, 3-(3-(cyclopentyl-methoxy)-4-(ethylsulfon-amido)phenyl)-5-(pyridin-2-ylamino)-1H-pyrazole-4-carboxamide] | – | > 30 µM | – |
| NC(=O)c1c(-c2ccc(NS(=O)(=O)CCC(F)(F)F)cc2)n[nH]c1Nc1cccc(C(F)(F)F)n1 [Compound 189, 5-((6-(trifluoromethyl)pyridine-2-yl)amino)-3-(4-((3,3,3-trifluoropropyl)sulfonamido)phenyl)-1H-pyrazole-4-carboxamide] | > 30 µM | – | < 10 nM |
| C#CCS(=O)(=O)Nc1ccc(-c2n[nH]c(Nc3ccnc(OCCOC)c3)c2C(N)=O)cc1 [Compound 109, 5-((2-(2-methoxyethoxy)pyridin-4-yl)amino)-3-(4-(prop-2-yn-1-ylsulfonamido)phenyl)-1H-pyrazole-4-carboxamide] | > 30 µM | – | < 10 nM |
| CCS(=O)(=O)Nc1ccc(-c2n[nH]c(Nc3cnc(C(C)C)cn3)c2C(N)=O)cc1 [Compound 66, 3-(4-(ethylsulfonamido)phenyl)-5-((5-isopropylpyrazin-2-yl)amino)-1H-pyrazole-4-carboxamide] | > 30 µM | – | < 10 nM |
| CCS(=O)(=O)Nc1ccc(-c2n[nH]c(Nc3cccc(OC)n3)c2C(N)=O)cc1 [Compound 107, 3-(4-(ethylsulfonamido)phenyl)-5-((6-methoxypyridin-2-yl)amino)-1H-pyrazole-4-carboxamide] | > 30 µM | – | < 10 nM |
| CCS(=O)(=O)Nc1ccc(-c2n[nH]c(Nc3ccc4ccccc4c3)c2C(N)=O)cc1 [Compound 86, 3-(4-(ethylsulfonamido)phenyl)-5-(naphthalen-2-ylamino)-1H-pyrazole-4-carboxamide] | > 30 µM | – | < 10 nM |
| NC(=O)c1c(-c2ccc(NS(=O)(=O)CC(F)F)cc2)n[nH]c1Nc1cccc(C(F)(F)F)n1 [Compound 49, 3-(4-((2,2-difluoroethyl)sulfonamido)phenyl)-5-((6-(trifluoromethyl)pyridin-2-yl)amino)-1H-pyrazole-4-carboxamide] | > 30 µM | – | < 10 nM |
| CCS(=O)(=O)Nc1ccc(-c2n[nH]c(NC)c2C(N)=O)cc1 [Compound 119, 3-(4-(ethylsulfonamido)phenyl)-5-(methylamino)-1H-pyrazole-4-carboxamide] | – | > 30 µM | – |
| COCCOc1cc(Nc2[nH]nc(-c3ccc(NS(C)(=O)=O)cc3)c2C(N)=O)ccn1 [Compound 122, 5-((2-(2-methoxyethoxy)pyridin-4-yl)amino)-3-(4-(methylsulfonamido)phenyl)-1H-pyrazole-4-carboxamide] | > 30 µM | – | < 10 nM |
| NC(=O)c1c(-c2ccc(NS(=O)(=O)C(F)F)cc2)n[nH]c1Nc1cccc(C(F)(F)F)n1 [Compound 53, 3-(4-((difluoromethyl)sulfonamido)phenyl)-5-((6-(trifluoromethyl)pyridin-2-yl)amino)-1H-pyrazole-4-carboxamide] | > 30 µM | – | < 10 nM |
| Cc1ccc(CS(=O)(=O)Nc2ccc(-c3n[nH]c(Nc4cccc(C(F)(F)F)n4)c3C(N)=O)cc2)cc1 [Compound 57, 3-(4-((p-tolylmethyl)sulfonamido)phenyl)-5-((6-(trifluoromethyl)pyridin-2-yl)amino)-1H-pyrazole-4-carboxamide] | – | > 30 µM | – |
